Experiments:
[1] = test system: P388 mouse leukemia cells; assay: Life-span-prolonging (anti-tumor) effect on mice subcutaneously inoculated with P388 mouse leukemia cells; format: in vivo, mouse (CDF1 female); settings: for Survival days ave. ± s. d.: all marked ** (p < 0.01); for response vs control in vivo at 0.1 mg/kg: Mus musculus, P388, iv, read-out: T/C (%)
Method: i) Anti-tumor effect of the compound of the present invention on mice subcutaneously inoculated with P388 mouse leukemia cells.
Experiment was performed with CDF1 female mice (6 weeks) purchased from NIPPON SLC K.K., which were divided into groups consisting of 5 animals. […]. In this connection, lentinan and picibanil were administered intravenously on days 1, 3, 5, 7 and 9 after implantation, and sizofilan was administered subcutaneously on days 1 through 9. Statistical analysis was performed according to the Mann-Whiteney test.

[2] = test system: mouse bone marrow cells; assay: In vitro mouse bone marrow cell-proliferation-promoting effect (3H-TdR uptake); format: cell-based, mouse (BDF1 female); settings: 4 days; for activity at 0.1 µg/mL / activity at 0.01 µg/mL: Mus musculus, Bone marrow cell, 96 h, read-out: Uptake of 3H-TdR (% of control), bone marrow cells; for Uptake of 3H-TdR (% of control), bone marrow cells: 5760 min
Method: In vitro mouse bone marrow cell-proliferation-promoting effect of the present compound
Experiment was performed with BDF1 female mice (6 weeks old) purchased from NIPPON SLC K.K. Bone marrow cells were removed from the femoral bone of mice by the conventional manner, floated on 10% FCS RPMI 1640, layered over Lympholite M, and centrifuged to give a monocyte fraction. 1×10^6 cells/ml of the monocyte fraction was suspended in 10% FCS RPMI 1640. The cell suspension (100 μl/well) and a vehicle or sample (10 μl/well) which was prepared so as to have a final level shown in Table 2 were added into a wells of round-bottomed 96 well plate, and cultured under the condition of 5% CO2 at 37° C. for 4 days. 0.5 μCi/well of ^3 H-thymidine (^3 H-TdR) was added. After 6 hours, the cells were harvested, and the amount of ^3 H-TdR uptaken into nucleus was measured by a liquid scintillation counter. The ratio of the uptake of ^3 H-TdR in the sample group to that in the vehicle group was calculated and used as the activation rate for promoting in vitro mouse bone marrow cell growth.

[3] = test system: mouse splenic lymphocyte; assay: In vitro mouse splenic lymphocyte-proliferation-stimulating effect (3H-TdR uptake); format: cell-based, mouse (BDF1 female); settings: 2 days; for activity at 1 µg/mL / activity at 0.1 µg/mL / activity at 0.01 µg/mL / activity at 0.001 µg/mL: Mus musculus, Splenic lymphocyte, 48 h, read-out: Uptake of 3H-TdR (% of control), splenic lymphocytes; for activity at 0.1 µg/mL: 10^-1 μg/ml; for activity at 0.01 µg/mL: 10^-2 μg/ml; for Uptake of 3H-TdR (% of control), splenic lymphocytes: 2880 min
Method: i) In vitro mouse splenic lymphocyte growth promoting effects of the present compounds
Experiment was performed with BDF1 female mice (6 weeks old) purchased from NIPPON SLC K.K. Spleens were removed from mice, and spleen cells were brayed with slide glasses and hemolized with NH4 Cl. 2×10^6cells/ml of the spleen cells which had been hemolized were suspended in 10% FCS RPMI 1640. The cell suspension (100 μl/well) and a vehicle or sample (10 μl/well) which was prepared so as to have a final level shown in Table 3 were added into wells of a round-bottomed 96 well plate, and cultured under the condition of 5% CO2 at 37° C. for 2 days. 0.5 μCi/well of ^3 H-thymidine (^3 H-TdR) was added. After 6 hours, the cells were harvested, and the amount of ^3 H-TdR uptaken into nucleus was measured by a liquid scintillation counter. The ratio (%) of the uptake of ^3 H-TdR in the sample group to that in the vehicle group was calculated and used as the in vitro mouse splenic lymphocyte-proliferation-stimulating rate.

[4] = test system: mixed lymphocyte culture reaction (spleen cells of C57BL/6 and BALB/C mice); assay: Mixed lymphocyte culture reaction (MLR); format: cell-based, mouse (C57BL/6 stimulator, BALB/C responder); settings: 42 hours; for activity at 1 µg/mL / activity at 0.1 µg/mL: Mus musculus, Lymphocyte, read-out: MLR activating rate (%); for MLR activating rate (%): 2520 min
Method: ii) Mixed lymphocyte culture reaction (MLR) of the compounds of the present invention
Spleen cells were prepared from C57BL/6 mice and treated with 50 μg/ml of mitomycin C for 30 minutes. The treated cells were used as stimulator cells, and the spleen cells of BALB/C mice as responder cells. 2×10^6 cells/ml of the both spleen cells were suspended in 10% FCS RPMI1640 as a culture medium. The above-described cells (50 μl/well) and a sample (10 μl/well) were added into wells of a round-bottomed 96 well plate, and cultured under the condition of 5% CO2 at 37° C. for 42 hours. 0.5 μCi/well of ^3 H-thymidine (^3 H-TdR) was added. After 8 hours, the cells were harvested, and the amount of uptaken ^3 H-TdR was measured by a liquid scintillation counter to calculate the ratio (%) of the uptake of ^3 H-TdR in the sample group to that in the vehicle group as the MLR activating rate.

[5] = test system: lethally irradiated mice; assay: Radioprotective effect: life-span prolongation of lethally irradiated mice; format: in vivo, mouse (BDF1 female); settings: 0.1 mg/kg i.v. days 0, 4, 8, 9 Gy X-ray, groups of 10
Method: Life-span-prolonging effects of the present compounds on lethally irradiated mice.
Experiment was performed with BDF1 female mice (6 weeks old) purchased from NIPPON SLC K.K., which were divided into groups consisting of 10 animals. Mice were irradiated generally with 9 Gy of X-ray with an X-ray generating apparatus, Hitachi, MBR-1520R (radiation day: day 0). Samples at a dose of 0.1 mg/kg were administered into tail vein on days 0, 4 and 8 in order to observe the mortality of the animals for 40 days.
In the table, two experiments are separated by the broken line.

[6] = test system: B16 mouse melanoma cells; assay: Tumor growth inhibition in mice subcutaneously inoculated with B16 mouse melanoma cells; format: in vivo, mouse (BDF1 female); settings: 0.1 mg/kg i.v. days 1, 5, 9; maximum during 20 days
Method: ii) Anti-tumor effect of the compound according to the present invention on mice subcutaneously inoculated with B16 mouse melanoma cells.
Experiment was performed with BDF1 female mice (6 weeks) purchased from NIPPON SLC K.K., which were divided into groups consisting of 6 animals. […]. The subcutaneous tumor volumes [(length×width×height)/2] were measured on days 8, 12, 16 and 20 after implantation to determine the tumor growth inhibiting rate (TGIR) of each sample. TGIR was calculated from the following formula: […]
wherein C: tumor volume in the control group, and
T: tumor volume in the sample adminitered groups.
In this connection, Compounds 1-6 and 7-9 were tested in the same time, respectively.

[7] = 0.1 mg/kg i.v. on days 1, 5 and 9
[8] = 0.1 mg/kg i.v. on days 1, 5 and 9, survival vs vehicle

Structure (SMILES)	Survival days ave. ± s. d. [1, 7] [days]	response vs control in vivo at 0.1 mg/kg [1, 8] [%]	activity at 0.1 µg/mL ([2]; 10^-1 μg/ml) [%]	activity at 0.01 µg/mL ([2]; 10^-2 μg/ml) [%]	activity at 1 µg/mL ([3]; 10^0 μg/ml) [%]	activity at 0.1 µg/mL [3] [%]	activity at 0.01 µg/mL [3] [%]	activity at 0.001 µg/mL ([3]; 10^-3 μg/ml) [%]	activity at 1 µg/mL ([4]; 1 × 10^0 μg/ml) [%]	activity at 0.1 µg/mL ([4]; 1 × 10^-1 μg/ml) [%]	further results
CCCCCCCCCCCCCCCCCCCCCC[C@@H](O)C(=O)N[C@@H](CO[C@H]1O[C@H](CO)[C@H](O)[C@H](O[C@H]2O[C@H](CO)[C@H](O)[C@H](O)[C@H]2NC(C)=O)[C@H]1O[C@H]1O[C@H](CO)[C@@H](O)[C@H](O)[C@H]1O)[C@H](O)[C@H](O)CCCCCCCCCCCC [Compound 1, O-(N-acetyl-2-amino-2-deoxy-α-D-galactopyranosyl)-(1→3)-O-[α-D-glucopyranosyl-(1→2)]-O-α-D-galactopyranosyl-(1→1)-(2S,3S,4R)-2-amino-N-[(R)-2-hydroxytetracosanoyl]-1,3,4-hexadecanetriol]	15.3 ± 0.8	120	211	133	843	738	332	184	222	142	Number of surviving mice ([5]; day 10): 10 mice; Number of surviving mice ([5]; day 15): 9 mice; Number of surviving mice ([5]; day 20): 7 mice; Number of surviving mice ([5]; day 25): 6 mice; Number of surviving mice ([5]; day 30): 6 mice; Number of surviving mice ([5]; day 35): 6 mice; Number of surviving mice ([5]; day 40): 6 mice
CCCCCCCCCCCCCCCCCCCCCC[C@@H](O)C(=O)N[C@@H](CO[C@H]1O[C@H](CO)[C@H](O)[C@H](O[C@H]2O[C@H](CO)[C@H](O)[C@H](O)[C@H]2NC(C)=O)[C@H]1O[C@H]1O[C@H](CO)[C@@H](O)[C@H](O)[C@H]1O)[C@H](O)[C@H](O)CCCCCCCCCCCCCC [Compound 8, O-(N-acetyl-2-amino-2-deoxy-α-D-galactopyranosyl)-(1→3)-O-[α-D-glucopyranosyl-(1→2)]-O-α-D-galactopyranosyl-(1→1)-(2S,3S,4R)-2-amino-N-[(R)-2-hydroxytetracosanoyl]-1,3,4-octadecanetriol]	16.0 ± 0.7										T/C (%) [1, 8]: 125%; Maximum tumor growth inhibiting rate, TGIR (%) [6]: 78.4%; Uptake of 3H-TdR (% of control), bone marrow cells ([2]; 10^-1 μg/ml): 240 % of control; Uptake of 3H-TdR (% of control), bone marrow cells ([2]; 10^-2 μg/ml): 167 % of control; Uptake of 3H-TdR (% of control), splenic lymphocytes ([3]; 10^0 μg/ml): 997 % of control; Uptake of 3H-TdR (% of control), splenic lymphocytes ([3]; 10^-3 μg/ml): 609 % of control; MLR activating rate (%) ([4]; 1 × 10^0 μg/ml): 286%; MLR activating rate (%) ([4]; 1 × 10^-1 μg/ml): 232%
CCCCCCCCCCCCCCCCCCCCCCCCCC(=O)N[C@@H](CO[C@H]1O[C@H](CO)[C@@H](O[C@H]2O[C@H](CO)[C@@H](O)[C@H](O)[C@H]2O)[C@H](O)[C@H]1O)[C@H](O)[C@H](O)CCCCCCCCCCCCCC [Compound 35, O-α-D-glucopyranosyl-(1→4)-O-α-D-glucopyranosyl-(1→1)-(2S,3S,4R)-2-amino-N-hexacosanoyl-1,3,4-octadecanetriol]	14.8 ± 1.3	116	223	148	431	874	803	538	165	133	life-span-prolonging effect (anti-tumor effect), in words ([1]; P388 s.c. system): intensive anti-tumor effects almost in the same level as that of Compound b
